Values after ≈ are worked out from the molar mass of the structure shown. Residues, ends and D or L forms follow the SMILES beside them.
How the values were obtained:
[1] = test system: Bacillus subtilis (strain BR151); format: cell-based; conditions: LB medium
How it was run: (§1)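 Broth microdilution MIC in LB; overnight cultures diluted to OD600 0.001 and mixed 1:1 with ⅔-serially diluted samples (stock 1 mg mL^−1 in H2O), 37° C for 18-24 h. MTT (0.1%) added; MIC read by eye as lowest concentration inhibiting visible growth (yellow).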

[2] = test system: Escherichia coli (strain DH5α); format: cell-based; conditions: LB medium
How it was run: as §1

[3] = test system: human red blood cells (hRBC); assay: Haemolysis assay, minimal haemolytic concentration (MHC); format: cell-based; conditions: hRBC in PBS pH 7.4, 4 h, room temperature
Description: To determine the minimal haemolytic concentration (MHC) stock solutions of 8 mg/mL of the peptide dendrimers in H2O were prepared and 50 μL were diluted serially by ½ in 50 μL PBS (pH 7.4) in 96-well plate (Cornstar or Nunc, polystyrene, untreated). Human red blood cells (hRBC) were obtained by centrifuging 1.5 mL of whole blood from friendly donors at 3000 rpm for 15 minutes. Plasma was discarded and the pellet was re-suspended in a 15 mL falcon tube up to 5 mL of PBS. The washing was repeated three times and the remaining pellet was re-suspended in 10 mL of PBS at a final hRBC concentration of 5%. The hRBC suspension (50 μL) was added to each well and the plate was incubated at room temperature for 4 hours. Minimal haemolytic concentration (MHC) end points were determined by visual inspection of the wells after the incubation period. Controls on each plate included a blank medium control (50 μl PBS+50 μl of hRBC suspension) and a haemolytic activity control (mQ-deionized water 50 μL+50 μL hRBC suspension).
MIC (minimal inhibitory concentration) and MHC (minimal haemolytic concentration, determined on human red blood cells (hRBC)) values are given in μg/mL. When no detectable haemolytic activity was observed, the last measured concentration was used for calculation of the therapeutic index. TI (therapeutic index)=MHC (μg/ml)/geometric mean of MIC (μg/ml). Larger values indicate greater antimicrobial specificity.

[4] = Proteolytic stability with human serum; format: in vitro ADME; conditions: 100 μM peptide, human serum diluted with DMEM, 37 °C, up to 24 h
Description: Peptides and peptide dendrimers were prepared as 200 μM stock solution in PBS. 25% Human Serum (diluted with DMEM) was centrifuged at for 15 min at 14000 rpm to remove the lipids and supernatant was collected and incubated for 15 min at 37° C. Proteolysis was initiated upon addition of 50 μL of the test peptide or peptide dendrimer to 50 μL of serum and shaking at 37° C. Final peptide concentration is 100 μM. Reaction mixtures were analyzed after 0, 1, 6, 24 h by addition of ice-cold 10% Trichloroacetic acid (TCA) to precipitate serum proteins. The supernantant was collected for each sample after centrifugation at 14000 rpm for 15 min. and evaporated with a speedvac. After dissolving the solid in 100 μL mQ-H2O they were analyzed by RP-UPLC (flow rate: 1.2 mL/min. gradient: A/D=100/0 to 0/100 in 7.5 min). Conversions of the remaining peptide and peptide dendrimers were calculated by integration of the absorbance at 214 nm by using Chromeleon software.
The peptides were mixed with human serum (previously diluted with DMEM) to a final peptide concentration of 100 μM to determine the stability of AMPDs toward proteases and incubated at 37° C. for 0, 1, 6, or 24 hours. After precipitation of proteins with TCA, the solution was analyzed by analytical RP-UPLC. […] AMPDs MSt-114, MSt-136, MSt-138, MSt-139, MSt-140 and MSt-176 were also checked for their stability. […]

[5] = test system: P. aeruginosa PAO1 bacterial suspension; assay: Detection of peptide in the presence of bacteria; format: in vitro ADME, Pseudomonas aeruginosa; conditions: 100 μM peptide, P. aeruginosa PAO1 in LB, 37 °C, up to 24 h
Description: Peptides and peptide dendrimers were prepared as 200 μM stock solution in H2O. A colony of bacteria was grown in LB-medium overnight at 37° C. The concentration was quantified by measuring absorbance at 600 nm and diluted to OD600=0.2. Degradation was initiated upon addition of 50 μL of the test peptide or peptide dendrimer to 50 μL of the bacterial suspension and shaking at 37° C. Final peptide concentration is 100 μM and final concentration of bacteria is OD600=0.1 (1×10^8 CFU/mL). Reaction mixtures were analyzed after 0, 1, 6, 9, 24 h by heating up to 95° C. for 5 min. followed by centrifugation for 15 min. at 14000 rpm. 50 μL of the supernantant were collected for each sample and 50 μL A were added giving a concentration of 50 μM. 5 μL of 4-Hydroxybenzoic acid (standard) were added before samples were analyzed by RP-UPLC (flow rate: 1.2 mL/min. gradient: A/D=100/0 to 0/100 in 7.5 min). Conversions of the remaining peptide and peptide dendrimers were calculated by integration of the absorbance at 214 nm by using Chromeleon software.
Bacteria were grown in LB overnight and diluted to OD600=0.2. After addition of the peptides to a concentration of 100 μM the samples were incubated for 0, 1, 6, 9, 24 hours at 37° C. After heating the suspension to 95° C. for 5 min and centrifugation the solution was subjected to UPLC and the remaining peptide was analyzed by using Chromeleon software.

[6] = test system: Pseudomonas aeruginosa (strain PA01); assay: microbe, parasite or virus in culture; format: cell-based; conditions: Pseudomonas aeruginosa, PAO1; LB medium, serial 2/3 dilution, 37 °C, 18-24 h; read-out: MIC P. aeruginosa PAO1
How it was run: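 P. aeruginosa PAO1 grown overnight in LB, diluted to OD600 0.001 and mixed with ⅔-step peptide dilutions, then incubated at 37 °C for 18–24 h. After MTT staining, the lowest concentration with no visible growth was read by eye as the MIC.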

[7] = test system: Pseudomonas aeruginosa (strain PA01); format: cell-based; conditions: 25 μg/mL; 0, 1, 3, 6, 8, 24 h
Description: Cell viability was assayed against Pseudomonas aeruginosa (strain PA01). A colony of bacteria was grown in LB-medium overnight at 37° C. The concentration was quantified by measuring absorbance at 600 nm and diluted to OD600=0.1 (1×10^8 CFU/mL). The samples were prepared as stock solutions of 1 mg mL^−1 in H2O and diluted in LB to a concentration of 50 μg/mL in a 96-well microtiterplate (TPP, untreated). The sample solutions (50 μL) were mixed with the diluted bacterial suspension with an OD600 nm of 0.001 (50 μL). […] The plates were incubated at 37° C. for 1, 3, 6, 8 and 24 h. Each time point was assayed on a separate plate. For each test, two columns of the plate were kept for sterility control (SC, broth only) and growth control (GC, broth with bacterial inoculums, no antibiotics). After incubation 15 μL of WST-8 working solution (3.31 mg/mL WST-8 (Ochem Incorporation), 0.074 mg/mL PES (phenazine ethosulfate)) was added to each well and cells were incubated at 37° C. until GC had desired value. After the reaction took place, the final absorbance was read at 450 nm. For calculations, the value of the GC was set to 100% cell viability and the value of the negative control (no bacteria, SC) was set to 0% cell viability. […]
In order to determine the killing kinetics of AMPDs the amount of living bacteria was measured as a function of time after incubation with the AMPDs. […]

[8] = 5(6)-Carboxyfluorescein leakage from lipid vesicles; conditions: 10 mM TRIS, 107 mM NaCl, pH 7.4; peptide added at 50 s
Description: (§2) Preparation A thin lipid film was prepared by evaporating a solution of 25 mg Egg PC or Egg PG in 1 mL MeOH/CHCl3 1/1 on a rotary evaporator (rt) and then in vacuo overnight. The resulting film was hydrated with 1 mL buffer (50 mM CF, 10 mM TIRS, 10 mM NaCl, pH 7.4) for 30 min, subjected to freeze-thaw cycles (7×) and extrusion (15×) through a polycarbonate membrane (pore size 100 nm). Extravesicular components were removed by gel filtration (Sephadex G-50) with 10 mM TRIS, 107 mM NaCl, pH 7.4. Final conditions: ˜2.5 mM Egg PC or Egg PG; inside: 50 mM CF, 10 mM TIRS, 10 mM NaCl, pH 7.4; outside: 10 mM TRIS, 107 mM NaCl, pH 7.4.
(§3) Experiment Egg PC or Egg PG stock solutions (37.5 μL) were diluted with a buffer (10 mM TRIS, 107 mM NaCl, pH 7.4) and placed in a thermostated fluorescence cuvette (25° C.) and gently stirred (total volume in the cuvette ˜3000 μL; final lipid concentration ˜31.25 μM). CF efflux was monitored at λem 517 nm (λex 492 nm) as a function of time after addition of 20 μL of peptide dendrimer in buffer (10 mM TRIS, 107 mM NaCl, pH 7.4) with final concentrations of 1, 5, 7.5, 10, 15, 20, 25, 30 μg/mL at t=50 s and 1.2% trition X-100 (30 μL, 0.012% final concentration) at t=300 s. Fluorescence intensities were normalized to fractional emission intensity I(t) using I(t)=(It−I0)/(I∞−I0) where I0 It at peptide dendrimer addition, I∞=It at saturation of lysis.
Bacterial membranes contain relatively large amounts of exposed anionic lipids, while the outer leaflet of the membranes of plants and animals is composed mainly of lipids with no net charge. The charge composition of such membranes can be mimicked with phospholipid vesicles. Large unilamellar vesicles (LUVs) composed of the neutral phospholipid with PC (phosphatidyl choline) or with PG (phosphatidyl glycerol) with negative charges were prepared encapsulating 5(6)-carboxyfluorescein (CF). […] The higher the concentration of MSt-112 the higher is the CF leakage (FIG. 6A). […] Overall the active AMPDs interact with the negatively charged membrane and release the CF.

[9] = as above; conditions: 10 mM TRIS, 107 mM NaCl, pH 7.4; peptide added at 50 s; remark: listed apart in the source
Description: as §2, §3

## CC(C)C[C@H](NC(=O)[C@H](CC(C)C)NC(=O)[C@H](CCCCN)NC(=O)[C@H](C)NC(=O)[C@H](CC(C)C)NC(=O)[C@H](CCCCN)NC(=O)[C@H](CCCCN)NC(=O)[C@H](CC(C)C)NC(=O)[C@H](C)NC(=O)[C@H](CCCCN)NC(=O)[C@H](CCCCN)NC(=O)[C@H](Cc1ccc(O)cc1)NC(=O)[C@@H](N)CCCCN)C(N)=O [RHe-9, (KYKKALKKLAKLL), reference compound] (H-KYKKALKKLAKLL-NH2)
[1]
  MIC B. subtilis BR151: 4 µg/mL (≈ 2.59 µM)
[2]
  MIC E. coli DH5α: <1 µg/mL
[3]
  MHC (minimal haemolytic concentration): not haemolytic
[4]
  Stability in human serum (remaining peptide signal, RP-UPLC): completely disappeared
[5]
  Stability in bacterial suspension (remaining peptide, UPLC): not detectable after 9 hours

## NC[C@H]1O[C@H](O[C@H]2[C@H](O)[C@@H](O[C@H]3O[C@H](CO)[C@@H](O)[C@H](N)[C@H]3O)[C@H](N)C[C@@H]2N)[C@H](N)C[C@@H]1O [Tobramycin]
[6]
  MIC: 0.5 µg/mL (≈ 1.07 µM)
[7]
  killing kinetics (bacterial survival over 24 hours): kill P. aeruginosa immediately
[8]
  CF leakage from phosphatidylglycerol LUVs: do not show release of CF
[9]
  CF leakage from phosphatidylcholine LUVs: no CF release
